Results on two compounds are retold here after patent US5922724A, “Benzimidazole compounds and their use as modulators of the GABA a receptor complex” (Neurosearch A/S, priority 1995, dated 1999).

The assay has as its target benzodiazepine receptor sites (GABAA receptor complex). The assay can be described thus: Displacement of ^3 H-flunitrazepam (^3 H-FNM) binding to rat cerebral cortex membranes. Conditions: ^3 H-FNM 1 nM, 40 min at 2° C., pH 7.1, non-specific binding with clonazepam 1 μM, read-out: IC50 (concentration of the test substance which inhibits the specific binding of ^3 H-FNM by 50%). Details: species or system male Wistar rats (cerebral cortex). An excerpt:
At present two types of GABA receptors are known, the GABAA and the GABAB receptors. […] Activation of GABA receptors leads to alternations in membrane potential (hyperpolarization). The GABAA receptors are associated with chloride influx through its associated and integrated chloride channel, whereas GABAB receptor activation indirectly alters potassium and calcium channels as well as modifies second messenger production. The GABAA recognition sites can be activated by GABA, muscimol; and isoguvacine for example, but not by GABAB agonists such as for example baclofen. The modulatory GABAA recognition site at the benzodiazepine receptor sites can be selectively radiolabelled with ^3 H-flunitrazepam. The affinity of various potential ligands for the benzodiazepine receptor sites can thus be evaluated by estimating the ability of test compounds to displace ^3 H-flunitrazepam.
Preparations are performed at 0-4° C. unless otherwise indicated. Cerebral cortex from male Wistar rats (150-200 g) is homogenized for 5-10 sec in 20 ml Tris-HCl (30 mM, pH 7.4) using an Ultra-Turrax homogenizer. […]
The membrane preparation is thawed and centrifuged at 2° C. for 10 min at 27,000× g. […] Non-specific binding is determined using clonazepam (1 μM, final concentration). […] The amount of radioactivity on the filters is determined by conventional liquid scintillation counting. […]

Turning to `Cc1nccn1-c1cccc(-n2cnc3cc(-c4ccoc4)ccc32)c1` [1-(3-(2-Methylimidazol-1-yl)phenyl)-5-(3-furanyl)benzimidazole], the IC50 was determined as 0.4 nM. Next, `c1cc(-n2ccnc2)cc(-n2cnc3cc(-c4ccoc4)ccc32)c1` [1-(3-(1-Imidazolyl)phenyl)-5-(3-furanyl)benzimidazole]: 0.4 nM.
